Results published in ChEMBL document CHEMBL1149714 (2007).
Converted amounts (≈) assume the structure as drawn.

Experiments:
Format in all cases: functional
Enterobacter cloacae [1] = assay: Antibacterial activity against Enterobacter cloacae ATCC 13047 after 20 hrs by agar dilution method; conditions: ATCC 13047, 20 h
Escherichia coli [2] = assay: Antibacterial activity against Escherichia coli NIHJJC2 after 20 hrs by agar dilution method
Haemophilus influenzae [3] = assay: Antibacterial activity against Haemophilus influenzae ATCC 49766 after 20 hrs by agar dilution method; conditions: ATCC 49766, 20 h
Pseudomonas aeruginosa [4] = assay: Antibacterial activity against AmpC hyperproducing Pseudomonas aeruginosa SR24-12 after 20 hrs by agar dilution method
Pseudomonas aeruginosa [5] = assay: Antibacterial activity against Pseudomonas aeruginosa SR24 after 20 hrs by agar dilution method
Pseudomonas aeruginosa [6] = assay: Antibacterial activity against Imipenem resistant Pseudomonas aeruginosa SR-6554 after 20 hrs by agar dilution method
Moraxella catarrhalis = assay: Antibacterial activity against Moraxella catarrhalis ATCC 43617 after 20 hrs by agar dilution method; conditions: ATCC 43617, 20 h
Staphylococcus aureus = assay: Antibacterial activity against […] Staphylococcus aureus SMITH after 20 hrs by agar dilution method
Pseudomonas aeruginosa [7] = assay: Antibacterial activity against Pseudomonas aeruginosa SR-5393 after 20 hrs by agar dilution method
Haemophilus influenzae [8] = assay: Antibacterial activity against beta-lactamase negative ampicillin resistant Haemophilus influenzae SR-11435 after 20 hrs by agar dilution method
Enterobacter cloacae [9] = assay: Antibacterial activity against AmpC producing Enterobacter cloacae SR-4321 after 20 hrs by agar dilution method
Escherichia coli [10] = assay: Antibacterial activity against Toho 2 (ESBL) producing Escherichia coli SR-21003 after 20 hrs by agar dilution method
Streptococcus pneumoniae = assay: Antibacterial activity against penicillin resistant Streptococcus pneumoniae SR-16675 after 20 hrs by agar dilution method

CNCCCn1ccc2c1ccc[n+]2CC1=C(C(=O)[O-])N2C(=O)[C@@H](NC(=O)/C(=N\OC3(C(=O)O)CC3)c3nc(N)sc3Cl)[C@H]2SC1
MIC (Enterobacter cloacae [1]): 0.5 µg/mL (≈ 0.726 µM) | MIC (Escherichia coli [2]): 0.5 µg/mL (≈ 0.726 µM) | MIC (Haemophilus influenzae [3]): 0.016 µg/mL (≈ 0.0232 µM) | MIC (Pseudomonas aeruginosa [4]): 4 µg/mL (≈ 5.8 µM) | MIC (Pseudomonas aeruginosa [5]): 1 µg/mL (≈ 1.45 µM) | MIC (Pseudomonas aeruginosa [6]): 16 µg/mL (≈ 23.2 µM) | MIC (Moraxella catarrhalis): 0.008 µg/mL (≈ 0.0116 µM) | MIC (Staphylococcus aureus): 1 µg/mL (≈ 1.45 µM) | MIC (Pseudomonas aeruginosa [7]): 4 µg/mL (≈ 5.8 µM) | MIC (Haemophilus influenzae [8]): 0.032 µg/mL (≈ 0.0464 µM) | MIC (Enterobacter cloacae [9]): 2 µg/mL (≈ 2.9 µM) | MIC (Escherichia coli [10]): 4 µg/mL (≈ 5.8 µM) | MIC (Streptococcus pneumoniae): 4 µg/mL (≈ 5.8 µM)

CC[C@H](O/N=C(\C(=O)N[C@@H]1C(=O)N2C(C(=O)[O-])=C(C[n+]3cccc4c3ccn4CCCNC)CS[C@H]12)c1nc(N)sc1Cl)C(=O)O
MIC (Enterobacter cloacae [1]): 1 µg/mL (≈ 1.45 µM) | MIC (Escherichia coli [2]): 1 µg/mL (≈ 1.45 µM) | MIC (Haemophilus influenzae [3]): 0.032 µg/mL (≈ 0.0463 µM) | MIC (Pseudomonas aeruginosa [4]): 4 µg/mL (≈ 5.79 µM) | MIC (Pseudomonas aeruginosa [5]): 1 µg/mL (≈ 1.45 µM) | MIC (Pseudomonas aeruginosa [6]): 16 µg/mL (≈ 23.1 µM) | MIC (Moraxella catarrhalis): 0.016 µg/mL (≈ 0.0231 µM) | MIC (Staphylococcus aureus): 1 µg/mL (≈ 1.45 µM) | MIC (Pseudomonas aeruginosa [7]): 4 µg/mL (≈ 5.79 µM) | MIC (Haemophilus influenzae [8]): 0.063 µg/mL (≈ 0.0911 µM) | MIC (Enterobacter cloacae [9]): 4 µg/mL (≈ 5.79 µM) | MIC (Escherichia coli [10]): 4 µg/mL (≈ 5.79 µM) | MIC (Streptococcus pneumoniae): 4 µg/mL (≈ 5.79 µM)

CNCCCn1ccc2c1ccc[n+]2CC1=C(C(=O)[O-])N2C(=O)[C@@H](NC(=O)/C(=N\OC(C)(C)C(=O)O)c3nc(N)sc3Cl)[C@H]2SC1
MIC (Enterobacter cloacae [1]): 2 µg/mL (≈ 2.89 µM) | MIC (Escherichia coli [2]): 1 µg/mL (≈ 1.45 µM) | MIC (Haemophilus influenzae [3]): 0.032 µg/mL (≈ 0.0463 µM) | MIC (Pseudomonas aeruginosa [4]): 8 µg/mL (≈ 11.6 µM) | MIC (Pseudomonas aeruginosa [5]): 2 µg/mL (≈ 2.89 µM) | MIC (Pseudomonas aeruginosa [6]): 16 µg/mL (≈ 23.1 µM) | MIC (Moraxella catarrhalis): 0.008 µg/mL (≈ 0.0116 µM) | MIC (Staphylococcus aureus): 2 µg/mL (≈ 2.89 µM) | MIC (Pseudomonas aeruginosa [7]): 4 µg/mL (≈ 5.79 µM) | MIC (Haemophilus influenzae [8]): 0.063 µg/mL (≈ 0.0911 µM) | MIC (Enterobacter cloacae [9]): 4 µg/mL (≈ 5.79 µM) | MIC (Escherichia coli [10]): 8 µg/mL (≈ 11.6 µM) | MIC (Streptococcus pneumoniae): 4 µg/mL (≈ 5.79 µM)

CNCCCn1ccc2c1ccc[n+]2CC1=C(C(=O)[O-])N2C(=O)[C@@H](NC(=O)/C(=N\O[C@@H](C)C(=O)O)c3nc(N)sc3Br)[C@H]2SC1
MIC (Enterobacter cloacae [1]): 1 µg/mL (≈ 1.39 µM) | MIC (Escherichia coli [2]): 0.5 µg/mL (≈ 0.693 µM) | MIC (Haemophilus influenzae [3]): 0.063 µg/mL (≈ 0.0873 µM) | MIC (Pseudomonas aeruginosa [4]): 4 µg/mL (≈ 5.54 µM) | MIC (Pseudomonas aeruginosa [5]): 1 µg/mL (≈ 1.39 µM) | MIC (Pseudomonas aeruginosa [6]): 8 µg/mL (≈ 11.1 µM) | MIC (Moraxella catarrhalis): 0.016 µg/mL (≈ 0.0222 µM) | MIC (Staphylococcus aureus): 1 µg/mL (≈ 1.39 µM) | MIC (Pseudomonas aeruginosa [7]): 4 µg/mL (≈ 5.54 µM) | MIC (Haemophilus influenzae [8]): 0.125 µg/mL (≈ 0.173 µM) | MIC (Enterobacter cloacae [9]): 4 µg/mL (≈ 5.54 µM) | MIC (Escherichia coli [10]): 4 µg/mL (≈ 5.54 µM) | MIC (Streptococcus pneumoniae): 4 µg/mL (≈ 5.54 µM)

CNCCCn1ccc2c1ccc[n+]2CC1=C(C(=O)[O-])N2C(=O)[C@@H](NC(=O)/C(=N\OC(C)(C)C(=O)O)c3csc(N)n3)[C@H]2SC1
MIC (Enterobacter cloacae [1]): 1 µg/mL (≈ 1.52 µM) | MIC (Escherichia coli [2]): 0.25 µg/mL (≈ 0.381 µM) | MIC (Pseudomonas aeruginosa [4]): 32 µg/mL (≈ 48.7 µM) | MIC (Pseudomonas aeruginosa [5]): 1 µg/mL (≈ 1.52 µM) | MIC (Pseudomonas aeruginosa [6]): 16 µg/mL (≈ 24.4 µM) | MIC (Pseudomonas aeruginosa [7]): 2 µg/mL (≈ 3.05 µM) | MIC (Enterobacter cloacae [9]): 16 µg/mL (≈ 24.4 µM) | MIC (Escherichia coli [10]): 2 µg/mL (≈ 3.05 µM)

CNCCCn1ccc2c1ccc[n+]2CC1=C(C(=O)[O-])N2C(=O)[C@@H](NC(=O)/C(=N\O[C@@H](C)C(=O)O)c3nc(N)sc3C)[C@H]2SC1
MIC (Enterobacter cloacae [1]): 4 µg/mL (≈ 6.09 µM) | MIC (Escherichia coli [2]): 2 µg/mL (≈ 3.05 µM) | MIC (Haemophilus influenzae [3]): 0.125 µg/mL (≈ 0.19 µM) | MIC (Pseudomonas aeruginosa [4]): 8 µg/mL (≈ 12.2 µM) | MIC (Pseudomonas aeruginosa [5]): 1 µg/mL (≈ 1.52 µM) | MIC (Pseudomonas aeruginosa [6]): 64 µg/mL (≈ 97.5 µM) | MIC (Moraxella catarrhalis): 0.5 µg/mL (≈ 0.761 µM) | MIC (Staphylococcus aureus): 4 µg/mL (≈ 6.09 µM) | MIC (Pseudomonas aeruginosa [7]): 4 µg/mL (≈ 6.09 µM) | MIC (Haemophilus influenzae [8]): 2 µg/mL (≈ 3.05 µM) | MIC (Enterobacter cloacae [9]): 16 µg/mL (≈ 24.4 µM) | MIC (Escherichia coli [10]): 32 µg/mL (≈ 48.7 µM) | MIC (Streptococcus pneumoniae): 8 µg/mL (≈ 12.2 µM)

CNCCCn1ccc2c1ccc[n+]2CC1=C(C(=O)[O-])N2C(=O)[C@@H](NC(=O)/C(=N\OCC(=O)O)c3nc(N)sc3Cl)[C@H]2SC1
MIC (Enterobacter cloacae [1]): 0.25 µg/mL (≈ 0.377 µM) | MIC (Escherichia coli [2]): 0.25 µg/mL (≈ 0.377 µM) | MIC (Haemophilus influenzae [3]): 0.032 µg/mL (≈ 0.0483 µM) | MIC (Pseudomonas aeruginosa [4]): 8 µg/mL (≈ 12.1 µM) | MIC (Pseudomonas aeruginosa [5]): 0.5 µg/mL (≈ 0.754 µM) | MIC (Pseudomonas aeruginosa [6]): 8 µg/mL (≈ 12.1 µM) | MIC (Moraxella catarrhalis): 0.016 µg/mL (≈ 0.0241 µM) | MIC (Staphylococcus aureus): 2 µg/mL (≈ 3.02 µM) | MIC (Pseudomonas aeruginosa [7]): 2 µg/mL (≈ 3.02 µM) | MIC (Haemophilus influenzae [8]): 0.125 µg/mL (≈ 0.188 µM) | MIC (Enterobacter cloacae [9]): 8 µg/mL (≈ 12.1 µM) | MIC (Escherichia coli [10]): 2 µg/mL (≈ 3.02 µM) | MIC (Streptococcus pneumoniae): 2 µg/mL (≈ 3.02 µM)

CNCCCn1ccc2c1ccc[n+]2CC1=C(C(=O)[O-])N2C(=O)[C@@H](NC(=O)/C(=N\O[C@@H](C)C(=O)O)c3nc(N)sc3F)[C@H]2SC1
MIC (Enterobacter cloacae [1]): 1 µg/mL (≈ 1.51 µM) | MIC (Escherichia coli [2]): 0.031 µg/mL (≈ 0.0469 µM) | MIC (Haemophilus influenzae [3]): 0.063 µg/mL (≈ 0.0954 µM) | MIC (Pseudomonas aeruginosa [4]): > 128 µg/mL | MIC (Pseudomonas aeruginosa [5]): 1 µg/mL (≈ 1.51 µM) | MIC (Pseudomonas aeruginosa [6]): 128 µg/mL (≈ 194 µM) | MIC (Moraxella catarrhalis): 0.5 µg/mL (≈ 0.757 µM) | MIC (Staphylococcus aureus): 2 µg/mL (≈ 3.03 µM) | MIC (Pseudomonas aeruginosa [7]): 8 µg/mL (≈ 12.1 µM) | MIC (Haemophilus influenzae [8]): 0.25 µg/mL (≈ 0.378 µM) | MIC (Enterobacter cloacae [9]): > 128 µg/mL | MIC (Escherichia coli [10]): 16 µg/mL (≈ 24.2 µM) | MIC (Streptococcus pneumoniae): 16 µg/mL (≈ 24.2 µM)

CNCCCn1ccc2c1ccc[n+]2CC1=C(C(=O)[O-])N2C(=O)[C@@H](NC(=O)/C(=N\O[C@H](C(=O)O)C(C)C)c3nc(N)sc3Cl)[C@H]2SC1
MIC (Enterobacter cloacae [1]): 4 µg/mL (≈ 5.67 µM) | MIC (Escherichia coli [2]): 2 µg/mL (≈ 2.84 µM) | MIC (Haemophilus influenzae [3]): 0.032 µg/mL (≈ 0.0454 µM) | MIC (Pseudomonas aeruginosa [4]): 8 µg/mL (≈ 11.3 µM) | MIC (Pseudomonas aeruginosa [5]): 2 µg/mL (≈ 2.84 µM) | MIC (Pseudomonas aeruginosa [6]): 16 µg/mL (≈ 22.7 µM) | MIC (Moraxella catarrhalis): 0.016 µg/mL (≈ 0.0227 µM) | MIC (Staphylococcus aureus): 1 µg/mL (≈ 1.42 µM) | MIC (Pseudomonas aeruginosa [7]): 8 µg/mL (≈ 11.3 µM) | MIC (Haemophilus influenzae [8]): 0.063 µg/mL (≈ 0.0893 µM) | MIC (Enterobacter cloacae [9]): 8 µg/mL (≈ 11.3 µM) | MIC (Escherichia coli [10]): 8 µg/mL (≈ 11.3 µM) | MIC (Streptococcus pneumoniae): 4 µg/mL (≈ 5.67 µM)

CNCCCn1ccc2c1ccc[n+]2CC1=C(C(=O)[O-])N2C(=O)[C@@H](NC(=O)/C(=N\OC3(C(=O)O)CCC3)c3nc(N)sc3Cl)[C@H]2SC1
MIC (Enterobacter cloacae [1]): 2 µg/mL (≈ 2.84 µM) | MIC (Escherichia coli [2]): 1 µg/mL (≈ 1.42 µM) | MIC (Haemophilus influenzae [3]): 0.032 µg/mL (≈ 0.0455 µM) | MIC (Pseudomonas aeruginosa [4]): 4 µg/mL (≈ 5.69 µM) | MIC (Pseudomonas aeruginosa [5]): 1 µg/mL (≈ 1.42 µM) | MIC (Pseudomonas aeruginosa [6]): 16 µg/mL (≈ 22.8 µM) | MIC (Moraxella catarrhalis): 0.016 µg/mL (≈ 0.0228 µM) | MIC (Staphylococcus aureus): 1 µg/mL (≈ 1.42 µM) | MIC (Pseudomonas aeruginosa [7]): 4 µg/mL (≈ 5.69 µM) | MIC (Haemophilus influenzae [8]): 0.063 µg/mL (≈ 0.0896 µM) | MIC (Enterobacter cloacae [9]): 4 µg/mL (≈ 5.69 µM) | MIC (Escherichia coli [10]): 4 µg/mL (≈ 5.69 µM) | MIC (Streptococcus pneumoniae): 4 µg/mL (≈ 5.69 µM)
